Laboratory results: patent US9000002B2, “N1-substituted-5-fluoro-2-oxopyrimidinone-1(2H)-carboxamide derivatives” (Dow Agrosciences LLC, priority 2009, dated 2015)
Where two headings read alike, the source gives them in different places.

Experiments:
[1] = test system: Mycosphaerella graminicola; Anamorph: Septoria tritici; Bayer Code SEPTTR; assay: Evaluation of fungicidal activity: leaf blotch of wheat (SEPTTR), wheat plants variety Yuma; type: in vivo; conditions: Zymoseptoria tritici
Method: Evaluation of Fungicidal Activity: Leaf Blotch of Wheat (Mycosphaerella graminicola; Anamorph: Septoria tritici; Bayer Code […]) Wheat plants (variety Yuma) were grown from seed in a greenhouse in 50% mineral soil/50% soil-less Metro mix until the first leaf was fully emerged, with 7-10 seedlings per pot. These plants were inoculated with an aqueous spore suspension of Septoria tritici either prior to or after fungicide treatments. After inoculation the plants were kept in 100% relative humidity (one day in a dark dew chamber followed by two to three days in a lighted dew chamber) to permit spores to germinate and infect the leaf. The plants were then transferred to a greenhouse for disease to develop. The following table presents the activity of typical compounds of the present disclosure when evaluated in these experiments. The effectiveness of the test compounds in controlling disease was determined by assessing the severity of disease on treated plants, then converting the severity to percent control based on the level of disease on untreated, inoculated plants. • In each case of Table II the rating scale is as follows: […]

[2] = 24 h, One-Day Protectant (1DP), 100 ppm, wheat plants, percent control vs untreated inoculated plants, read-out: SEPTTR 100 PPM 1DP (% Disease Control rating)
[3] = 72 h, Three-Day Curative (3DC), 100 ppm, wheat plants, percent control vs untreated inoculated plants, read-out: SEPTTR 100 PPM 3DC (% Disease Control rating)

Structure (SMILES) | melting point | pest or weed control at 100 ppm [1, 2] [%] | pest or weed control at 100 ppm [1, 3] [%] | pest or weed control at 100 ppm ([1]; 24 h, read-out: SEPTTR 100 PPM 1DP (% Disease Control rating)) [%] | pest or weed control at 100 ppm ([1]; 72 h, read-out: SEPTTR 100 PPM 3DC (% Disease Control rating)) [%]
Nc1nc(=O)n(C(=O)NC2CCCC2)cc1F [Compound 5, 4-amino-N-cyclopentyl-5-fluoro-2-oxopyrimidine-1(2H)-carboxamide] | 294 to 297 °C | 76 to 100 | 76 to 100 | – | –
Nc1nc(=O)n(C(=O)Nc2ccccc2)cc1F [Compound 6, 4-amino-5-fluoro-2-oxo-N-phenylpyrimidine-1(2H)-carboxamide] | 275 to 277 °C (dec.) | – | – | 76 to 100 | 76 to 100
Nc1nc(=O)n(C(=O)Nc2ccccc2Cl)cc1F [Compound 8] | 258 to 261 °C | 76 to 100 | 76 to 100 | – | –
COc1ccc(NC(=O)n2cc(F)c(N)nc2=O)cc1 [Compound 10] | 252 to 255 °C | 76 to 100 | 76 to 100 | – | –
Nc1nc(=O)n(C(=O)Nc2ccc(F)c(Cl)c2)cc1F [Compound 11] | 251 to 254 °C | 76 to 100 | 26 to 50 | – | –
Nc1nc(=O)n(C(=O)Nc2ccc(Cl)cc2)cc1F [Compound 12] | 261 to 264 °C | 76 to 100 | 76 to 100 | – | –
N#Cc1ccc(NC(=O)n2cc(F)c(N)nc2=O)cc1 [Compound 13] | 254 to 257 °C | 76 to 100 | 51 to 75 | – | –
Nc1nc(=O)n(C(=O)Nc2cccc(Cl)c2)cc1F [Compound 14, 4-amino-N-(3-chlorophenyl)-5-fluoro-2-oxopyrimidine-1(2H)-carboxamide] | 250 to 252 °C | 76 to 100 | 76 to 100 | – | –
Nc1nc(=O)n(C(=O)Nc2ccc3ccccc3c2)cc1F [Compound 17] | 273 to 275 °C | 76 to 100 | 76 to 100 | – | –
Cn1ccc2cc(NC(=O)n3cc(F)c(N)nc3=O)ccc21 [Compound 18] | 268 to 270 °C | 76 to 100 | 76 to 100 | – | –

Continued, in another order:

melting point | Structure (SMILES) | pest or weed control at 100 ppm [1, 2] [%] | pest or weed control at 100 ppm [1, 3] [%] | pest or weed control at 100 ppm ([1]; 24 h, read-out: SEPTTR 100 PPM 1DP (% Disease Control rating)) [%] | pest or weed control at 100 ppm ([1]; 72 h, read-out: SEPTTR 100 PPM 3DC (% Disease Control rating)) [%]
266 to 268 °C | CCCNC(=O)n1cc(F)c(/N=C/N(C)C)nc1=O [Compound 1, 4-(dimethylamino-methyleneamino)-5-fluoro-2-oxo-2H-pyrimidine-1-carboxylic acid propylamide] | 76 to 100 | 76 to 100 | – | –
232 to 236 °C | CCOC(=O)CCNC(=O)n1cc(F)c(/N=C/N(C)C)nc1=O [Compound 2] | 76 to 100 | 76 to 100 | – | –
147 to 150 °C | CN(C)/C=N/c1nc(=O)n(C(=O)NCc2ccccc2)cc1F [Compound 3, (E)-N-benzyl-4-((dimethylamino)methyleneamino)-5-fluoro-2-oxopyrimidine-1(2H)-carboxamide] | 76 to 100 | 76 to 100 | – | –
289 to 292 °C | CCCCCNC(=O)n1cc(F)c(N)nc1=O [Compound 4, 4-amino-5-fluoro-2-oxo-N-pentylpyrimidine-1(2H)-carboxamide] | 76 to 100 | 76 to 100 | – | –
277 to 280 °C (dec.) | COc1ccccc1NC(=O)n1cc(F)c(N)nc1=O [Compound 7] | 76 to 100 | 76 to 100 | – | –
277 to 280 °C (dec.) | Cc1ccccc1NC(=O)n1cc(F)c(N)nc1=O [Compound 9] | 76 to 100 | 76 to 100 | – | –
257 to 260 °C | Cc1ccc(NC(=O)n2cc(F)c(N)nc2=O)cc1 [Compound 15] | 76 to 100 | 76 to 100 | – | –
242 to 244 °C | COc1cccc(NC(=O)n2cc(F)c(N)nc2=O)c1 [Compound 16] | 76 to 100 | 76 to 100 | – | –
